PubChem BioAssay (NCI)
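Following 48 hours of exposure in 96-well plates, responses at five concentrations were used to interpolate endpoints linearly. TGI marks complete inhibition of growth.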

Tests used:
Assay in all cases: growth of human tumour cells (NCI), 48 h
[1] = system: DU-145 prostate
[2] = system: COLO 205 colon
[3] = system: MOLT-4 leukemia
[4] = system: TK-10 renal
[5] = system: MDA-N
[6] = system: SK-OV-3 ovarian
[7] = system: HCT-15 colon
[8] = system: A498 renal
[9] = system: SF-295 CNS
[10] = system: BT-549 breast
[11] = system: SN12C renal
[12] = system: SF-268 CNS
[13] = system: SW-620 colon
[14] = system: SK-MEL-5 melanoma
[15] = system: 786-0 renal
[16] = system: RXF 393 renal
[17] = system: OVCAR-3 ovarian
[18] = system: UACC-257 melanoma
[19] = system: MDA-MB-435
[20] = system: MDA-MB-231 breast
[21] = system: A549 NSCLC
[22] = system: M14 melanoma
[23] = system: SNB-19 CNS
[24] = system: HCT-116 colon
[25] = system: ACHN renal
[26] = system: NCI-H460 lung
[27] = system: LOX IMVI melanoma
[28] = system: HL-60(TB) leukemia
[29] = system: MALME-3M melanoma
[30] = system: CAKI-1 renal
[31] = system: HOP-62 NSCLC
[32] = system: HT29 colon
[33] = system: SF-539 CNS
[34] = system: K-562 leukemia
[35] = system: SK-MEL-28 melanoma
[36] = system: NCI/ADR-RES ovarian
[37] = system: PC-3 prostate
[38] = system: KM12 colon
[39] = system: IGROV1 ovarian
[40] = system: CCRF-CEM leukemia
[41] = system: SR leukemia
[42] = system: SK-MEL-2 melanoma
[43] = system: HS 578T breast
[44] = system: MCF7 breast
[45] = system: OVCAR-5 ovarian
[46] = system: EKVX NSCLC
[47] = system: OVCAR-8 ovarian
[48] = system: HOP-92 NSCLC
[49] = system: NCI-H226 lung
[50] = system: OVCAR-4 ovarian
[51] = system: SNB-75 CNS
[52] = system: UACC-62 melanoma
[53] = system: NCI-H23 lung
[54] = system: UO-31 renal
[55] = system: HCC-2998 colon
[56] = system: NCI-H522 lung
[57] = system: T-47D breast
[58] = system: RPMI-8226 leukemia
[59] = system: U251 CNS

N#Cc1c(-c2ccccc2)[nH]c2ccccc2c1=O
TGI [1]: > 100 µM
TGI [2]: > 100 µM
TGI [3]: > 100 µM
TGI [4]: 97.8 µM
TGI [5]: > 100 µM
TGI [6]: > 100 µM
TGI [7]: > 100 µM
TGI [8]: > 100 µM
TGI [9]: 66.7 µM
TGI [10]: 69.8 µM
TGI [11]: > 100 µM
TGI [12]: > 100 µM
TGI [13]: > 100 µM
TGI [14]: > 100 µM
TGI [15]: > 100 µM
TGI [16]: > 100 µM
TGI [17]: > 100 µM
TGI [18]: > 100 µM
TGI [19]: 59.2 µM
TGI [20]: > 100 µM
TGI [21]: > 100 µM
TGI [22]: > 100 µM
TGI [23]: 74.9 µM
TGI [24]: > 100 µM
TGI [25]: > 100 µM
TGI [26]: > 100 µM
TGI [27]: > 100 µM
TGI [28]: > 100 µM
TGI [29]: > 100 µM
TGI [30]: > 100 µM
TGI [31]: 84.9 µM
TGI [32]: > 100 µM
TGI [33]: > 100 µM
TGI [34]: > 100 µM
TGI [35]: > 100 µM
TGI [36]: > 100 µM
TGI [37]: > 100 µM
TGI [38]: > 100 µM
TGI [39]: > 100 µM
TGI [40]: > 100 µM
TGI [41]: > 100 µM
TGI [42]: > 100 µM
TGI [43]: 71.5 µM
TGI [44]: > 100 µM
TGI [45]: > 100 µM
TGI [46]: > 100 µM
TGI [47]: > 100 µM
TGI [48]: > 100 µM
TGI [49]: > 100 µM
TGI [50]: > 100 µM
TGI [51]: 38.3 µM
TGI [52]: > 100 µM

COc1ccc2c(c1)CN1C(=N2)CSC1c1cc([N+](=O)[O-])ccc1Cl (stereo unspecified)
TGI [2]: 92.4 µM
TGI [3]: > 100 µM
TGI [4]: > 100 µM
TGI [5]: > 100 µM
TGI [6]: > 100 µM
TGI [7]: > 100 µM
TGI [9]: > 100 µM
TGI [53]: > 100 µM
TGI [10]: > 100 µM
TGI [54]: > 100 µM
TGI [11]: > 100 µM
TGI [12]: > 100 µM
TGI [13]: > 100 µM
TGI [14]: > 100 µM
TGI [15]: > 100 µM
TGI [16]: > 100 µM
TGI [18]: > 100 µM
TGI [19]: > 100 µM
TGI [20]: > 100 µM
TGI [21]: > 100 µM
TGI [22]: > 100 µM
TGI [23]: > 100 µM
TGI [24]: > 100 µM
TGI [25]: > 100 µM
TGI [26]: > 100 µM
TGI [27]: > 100 µM
TGI [28]: 45.8 µM
TGI [29]: > 100 µM
TGI [55]: 58.7 µM
TGI [30]: > 100 µM
TGI [56]: > 100 µM
TGI [31]: > 100 µM
TGI [32]: 75.8 µM
TGI [33]: 98.2 µM
TGI [34]: > 100 µM
TGI [36]: > 100 µM
TGI [37]: > 100 µM
TGI [38]: > 100 µM
TGI [57]: > 100 µM
TGI [39]: > 100 µM
TGI [58]: 72.3 µM
TGI [41]: > 100 µM
TGI [42]: > 100 µM
TGI [43]: > 100 µM
TGI [44]: > 100 µM
TGI [45]: > 100 µM
TGI [46]: > 100 µM
TGI [59]: > 100 µM
TGI [47]: > 100 µM
TGI [48]: > 100 µM
TGI [49]: > 100 µM
TGI [50]: > 100 µM
TGI [51]: > 100 µM
TGI [52]: 57.5 µM
